Source: patent publication US20160137746A1, “METHODS FOR TREATING HIGH CARDIOVASCULAR RISK PATIENTS WITH HYPERCHOLESTEROLEMIA” (Sanofi Biotechnology, priority 2014, published 2016)

System: high cardiovascular risk patients with hypercholesterolemia
Assay: ODYSSEY COMBO I: lipid efficacy of alirocumab vs placebo, add-on to maximally tolerated statin, 52 weeks
Type: in vivo, human
From the text: Each of the COMBO studies was randomized, double-blinded, and placebo-controlled.
The primary efficacy endpoint for each study was the difference between treatment arms in the percent change in LDL-C from baseline to Week 24.
Apo, apolipoprotein; HDL-C, high-density lipoprotein cholesterol; ITT, intent-to-treat; LDL-C, low-density lipoprotein cholesterol; Lp(a), lipoprotein (a); TG, triglycerides.
COMBO I was a Phase 3, randomized, double-blind, placebo-controlled, parallel-group, multicenter, 52-week study.
After randomization, patients entered a double-blind treatment period of 52 weeks. […] Patients randomized to placebo received a 1 ml SC placebo injection from an identical auto-injector.
To maintain blinding, the patient and investigator were not informed of the Week 8 LDL-C levels (or any lipid values after randomization); continuation or up-titration of dose occurred in an automated and blinded manner.
Primary analyses of efficacy endpoints were conducted using an ITT approach (based on the ITT population defined above), including all lipid data, regardless of whether the patient was continuing therapy or not. This corresponds to ITT estimands, defined for primary and key secondary endpoints. In addition, analyses were also conducted using an on-treatment approach (based on the mITT population defined above), including lipid data collected during the efficacy treatment period. This corresponds to on-treatment estimands of key secondary endpoints.
With regards to the primary efficacy analysis (ITT approach), the percent change in calculated LDL-C from baseline to Week 24 was analyzed using a mixed-effect model with repeated measures (MMRM) approach. All post-baseline data available from Week 4 to Week 52 analysis windows were used and missing data were accounted for by the MMRM.

[1] = ITT, Week 24, listed as alirocumab
[2] = Week 24, 'Combo I: Overall Results' paragraph

“Alirocumab: human anti-PCSK9 antibody; HCVR SEQ ID NO:1, LCVR SEQ ID NO:6; CDRs SEQ ID NOs 2/3/4/7/8/10” was tested, and the “Patients with automatic up-titration at Week 12 from 75 mg Q2W to 150 mg Q2W (Week 8 LDL-C ≧70 mg/dL)” value (32 of 191 patients with at least one injection after Week 12) was 16.8%, the “Patients who reached LDL-C <70 mg/dL despite baseline LDL-C >190 mg/dL” value ('Combo I: Overall Results' paragraph) was 32% and the “Calculated LDL-C change from baseline, LS mean” value (ITT, Week 4) was -1.308 mmol/L. For the same substance, the “Calculated LDL-C change from baseline, LS mean (SE)” value (shortened to “Calculated LDL-C change … (SE)”) (ITT, Week 4) was −50.5 (1.7) mg/dL, the “Calculated LDL-C value, LS mean” value (ITT, Week 4) was 1.327 mmol/L and the “Calculated LDL-C value, LS mean (SE)” value (ITT, Week 4) was 51.2 (1.7) mg/dL. For the same substance, the “Calculated LDL-C, LS mean (SE) percent change from baseline” value (ITT, Week 4) was −50.6 (1.7) %, the “Calculated LDL-C change from baseline, LS mean” value (ITT, Week 8) was -1.372 mmol/L and the “Calculated LDL-C change … (SE)” value (ITT, Week 8) was −53.0 (1.7) mg/dL. For the same substance, the “Calculated LDL-C value, LS mean” value (ITT, Week 8) was 1.264 mmol/L, the “Calculated LDL-C value, LS mean (SE)” value (ITT, Week 8) was 48.8 (1.7) mg/dL and the “Calculated LDL-C, LS mean (SE) percent change from baseline” value (ITT, Week 8) was −51.6 (1.7) %. The “Apo-B percent change, LS mean difference vs placebo” value (ITT, Week 12) was “placebo of −38.2%”, the “Calculated LDL-C change from baseline, LS mean” value (ITT, Week 12) was -1.207 mmol/L and the “Calculated LDL-C change … (SE)” value (ITT, Week 12) was −46.6 (2.0) mg/dL. For the same substance, the “Calculated LDL-C percent change, LS mean difference vs placebo” value (ITT, Week 12) was “placebo of −47.4%”, the “Calculated LDL-C value, LS mean” value (ITT, Week 12) was 1.428 mmol/L and the “Calculated LDL-C value, LS mean (SE)” value (ITT, Week 12) was 55.1 (2.0) mg/dL. The “Non-HDL-C percent change, LS mean difference vs placebo” value (ITT, Week 12) was “placebo of −40.1%”, the “Total-C percent change, LS mean difference vs placebo” value (ITT, Week 12) was “placebo of −26.4%” and the “Calculated LDL-C, LS mean (SE) percent change from baseline” value (ITT, Week 12 (before possible up-titration)) was −46.3 (1.8) %. The “Calculated LDL-C, LS mean (SE) percent change from baseline” value (ITT, Week 12 (before possible up-titration), listed as alirocumab) was −46.3%, the “Calculated LDL-C percent change, LS mean difference vs placebo” value (ITT, Week 12, listed as alirocumab) was −47.4% and the “Calculated LDL-C change from baseline, LS mean” value (ITT, Week 16) was -1.345 mmol/L. For the same substance, the “Calculated LDL-C change … (SE)” value (ITT, Week 16) was −51.9 (1.9) mg/dL, the “Calculated LDL-C value, LS mean” value (ITT, Week 16) was 1.291 mmol/L and the “Calculated LDL-C value, LS mean (SE)” value (ITT, Week 16) was 49.8 (1.9) mg/dL. For the same substance, the “Calculated LDL-C, LS mean (SE) percent change from baseline” value (ITT, Week 16) was −50.5 (1.9) %, the “Apo-B percent change, LS mean difference vs placebo” value (ITT, Week 24) was “placebo of −35.8%” and the “Calculated LDL-C change from baseline, LS mean” value (ITT, Week 24) was -1.303 mmol/L. The “Calculated LDL-C change … (SE)” value (ITT, Week 24) was −50.3 (2.0) mg/dL, the “Calculated LDL-C percent change, LS mean difference (SE) vs placebo” value (ITT, Week 24) was −45.9 (3.3) % and the “Calculated LDL-C value, LS mean” value (ITT, Week 24) was 1.332 mmol/L. For the same substance, the “Calculated LDL-C value, LS mean (SE)” value (ITT, Week 24) was 51.4 (2.0) mg/dL, the “Calculated LDL-C, LS mean (SE) percent change from baseline” value (ITT, Week 24) was −48.2 (1.9) % and the “Calculated LDL-C, LS mean difference (SE) vs placebo, pattern-mixture-model sensitivity analysis” value (ITT, Week 24) was −42.7 (3.7) %. For the same substance, the “HDL-C percent change, LS mean difference vs placebo” value (ITT, Week 24) was “placebo of 7.3%”, the “Lp(a) percent change, combined estimate for adjusted mean difference vs placebo” value (ITT, Week 24) was “vs. placebo of −14.6%” and the “Non-HDL-C percent change, LS mean difference vs placebo” value (ITT, Week 24) was “placebo of −37.5%”. The “Total-C percent change, LS mean difference vs placebo” value (ITT, Week 24) was “placebo of −25%”, the “Calculated LDL-C percent change, LS mean difference (SE) vs placebo” value [1] was −45.9% and the “Calculated LDL-C, LS mean (SE) percent change from baseline” value [1] was −48.2%. For the same substance, the “Fasting TGs percent change, combined estimate for adjusted mean difference vs placebo” value (ITT, Week 24, not statistically significant (p 0.7597)) was “vs. placebo of −1.2%”, the “Calculated LDL-C change from baseline, LS mean” value (ITT, Week 36) was -1.225 mmol/L and the “Calculated LDL-C change … (SE)” value (ITT, Week 36) was −47.3 (2.2) mg/dL. The “Calculated LDL-C value, LS mean” value (ITT, Week 36) was 1.411 mmol/L, the “Calculated LDL-C value, LS mean (SE)” value (ITT, Week 36) was 54.5 (2.2) mg/dL and the “Calculated LDL-C, LS mean (SE) percent change from baseline” value (ITT, Week 36) was −44.8 (2.5) %. For the same substance, the “Calculated LDL-C change from baseline, LS mean” value (ITT, Week 52) was -1.153 mmol/L, the “Calculated LDL-C change … (SE)” value (ITT, Week 52) was −44.5 (2.4) mg/dL and the “Calculated LDL-C percent change, LS mean difference vs placebo” value (ITT, Week 52) was “placebo of −43%”. The “Calculated LDL-C value, LS mean” value (ITT, Week 52) was 1.483 mmol/L, the “Calculated LDL-C value, LS mean (SE)” value (ITT, Week 52) was 57.2 (2.4) mg/dL and the “Calculated LDL-C, LS mean (SE) percent change from baseline” value (ITT, Week 52) was −42.5 (2.5) %. For the same substance, the “Calculated LDL-C, LS mean (SE) percent change from baseline” value (ITT, Week 52, listed as alirocumab) was −42.5%, the “Calculated LDL-C percent change, LS mean difference vs placebo” value (On-treatment, Week 12) was “placebo of −49.3%” and the “Apo-B percent change, LS mean difference vs placebo” value (On-treatment, Week 24) was “placebo of −37.5%”. The “Calculated LDL-C percent change, LS mean difference (SE) vs placebo” value (On-treatment, Week 24) was −49.9%, the “Calculated LDL-C, LS mean (SE) percent change from baseline” value (On-treatment, Week 24) was −50.7 (1.9) % and the “Non-HDL-C percent change, LS mean difference vs placebo” value (On-treatment, Week 24) was “placebo of −40.4%”. For the same substance, the “Percent LDL-C reduction vs placebo within demographic and patient subgroups” value (Week 24, FIG. 5) was “seen at every level within each subgroup”, the “Absolute mean decrease from baseline in LDL-C” value [2] was -90.8 mg/dL and the “Patients who achieved LDL-C <100 mg/dL” value [2] was 57%. The “Change in triglyceride levels” value (baseline to Week 24) was “No significant change”, the “HDL-C percent change from baseline” value (baseline to Week 24) was 3.5 (1.1) % and the “Additional mean LDL-C reduction at week 24 compared with week 12” value (patients with dose increase to 150 mg Q2W at week 12) was 22.8%.
